Experimental data from ChEMBL document CHEMBL1154377, “Evaluation of basic, heterocyclic ring systems as templates for use as potassium competitive acid blockers (pCABs)” (Bioorg Med Chem Lett, 2009).
Activity calls are given as the source filed them. No cut-off for these calls is given here.

Assays:
[1] = Inhibition of H+/K+ ATPase at pH 7.4
[2] = Inhibition of H+/K+ ATPase in parietal cells assessed as inhibition of pentagastrin-stimulated [14C]aminopyrine accumulation at 1 uM; format: cell-based
[3] = Chromatographic hydrophobicity index at pH 7.4 by fast gradient HPLC; format: physicochemical; settings: buffer
Cytochrome P450 2C19 = Cytochrome P450 2C19 (Homo sapiens, UniProt P33261); assay: Inhibition of CYP2C19; format: ADME
Cytochrome P450 2C9 = Cytochrome P450 2C9 (Homo sapiens, UniProt P11712)
[4] = Inhibition of H+/K+ ATPase in parietal cells assessed as inhibition of histamine-stimulated [14C]aminopyrine accumulation
CYP2D6 = CYP2D6 (Homo sapiens, UniProt P10635); assay: Inhibition of CYP2D6 assessed as ratio of IC50 at 0 mins to IC50 at 10 mins; format: ADME; settings: read-out: Ratio IC50
[5] = Intrinsic clearance in rat liver microsomes; format: ADME, Microsome
Cytochrome P450 3A4 [6] = biological target: T1, Cytochrome P450 3A4 (Homo sapiens, UniProt P08684); assay: Inhibition of CYP3A4 using 7-benzyloxyquinoline substrate; format: ADME
Cytochrome P450 1A2 = biological target: T2, Cytochrome P450 1A2 (Homo sapiens, UniProt P05177); assay: Inhibition of CYP1A2; format: ADME
T2 sequence (P05177 whole entry): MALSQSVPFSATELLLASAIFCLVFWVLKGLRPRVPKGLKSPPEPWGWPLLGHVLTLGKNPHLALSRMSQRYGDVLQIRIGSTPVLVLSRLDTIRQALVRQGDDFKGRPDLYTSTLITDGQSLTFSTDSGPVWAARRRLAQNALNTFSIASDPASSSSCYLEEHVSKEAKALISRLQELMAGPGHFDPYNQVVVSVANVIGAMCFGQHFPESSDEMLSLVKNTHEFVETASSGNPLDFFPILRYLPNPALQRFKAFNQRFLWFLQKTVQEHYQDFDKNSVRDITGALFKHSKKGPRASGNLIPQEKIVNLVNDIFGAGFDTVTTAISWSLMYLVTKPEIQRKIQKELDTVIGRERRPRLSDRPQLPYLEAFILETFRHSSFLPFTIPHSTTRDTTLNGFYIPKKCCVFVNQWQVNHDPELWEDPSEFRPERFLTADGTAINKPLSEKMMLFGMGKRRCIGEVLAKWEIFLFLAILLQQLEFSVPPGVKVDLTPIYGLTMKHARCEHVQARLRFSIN

[7] = Intrinsic clearance in human liver microsomes; format: ADME, Microsome
[8] = Intrinsic clearance in dog liver microsomes; format: ADME, Canis lupus familiaris, Microsome
CYP3A4 = CYP3A4 (Homo sapiens, UniProt P08684); assay: Inhibition of CYP3A4 assessed as ratio of IC50 at 0 mins to IC50 at 10 mins using diethoxyfluorescein substrate; format: ADME; settings: probe diethoxyfluorescein; read-out: Ratio IC50
Cytochrome P450 3A4 [9] = biological target: T1, Cytochrome P450 3A4; assay: Inhibition of CYP3A4 using diethoxyfluorescein substrate; format: ADME
Cytochrome P450 2D6 = Cytochrome P450 2D6 (Homo sapiens, UniProt P10635); assay: Inhibition of CYP2D6; format: ADME
[10] = Dissociation constant, pKa of the compound; format: physicochemical; settings: read-out: pKa
[11] = Inhibition of H+/K+ ATPase in parietal cells assessed as inhibition of pentagastrin-stimulated [14C]aminopyrine accumulation at 50 µM

T1 sequence (P08684 whole entry): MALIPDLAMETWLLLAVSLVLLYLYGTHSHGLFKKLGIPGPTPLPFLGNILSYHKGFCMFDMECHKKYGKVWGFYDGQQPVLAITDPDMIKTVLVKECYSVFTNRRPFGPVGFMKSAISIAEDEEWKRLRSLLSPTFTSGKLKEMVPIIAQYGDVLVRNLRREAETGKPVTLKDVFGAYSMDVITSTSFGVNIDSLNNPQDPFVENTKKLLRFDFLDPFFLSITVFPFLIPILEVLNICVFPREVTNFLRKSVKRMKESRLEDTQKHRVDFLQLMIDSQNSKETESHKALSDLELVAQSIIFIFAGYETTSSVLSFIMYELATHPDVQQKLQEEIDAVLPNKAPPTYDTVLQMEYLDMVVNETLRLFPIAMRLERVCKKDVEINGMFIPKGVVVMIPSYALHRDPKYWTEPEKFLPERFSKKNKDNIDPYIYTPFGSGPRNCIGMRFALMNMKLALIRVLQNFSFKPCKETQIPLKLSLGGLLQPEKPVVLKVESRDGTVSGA
Chain of Cytochrome P450 2C19 (P33261 whole entry): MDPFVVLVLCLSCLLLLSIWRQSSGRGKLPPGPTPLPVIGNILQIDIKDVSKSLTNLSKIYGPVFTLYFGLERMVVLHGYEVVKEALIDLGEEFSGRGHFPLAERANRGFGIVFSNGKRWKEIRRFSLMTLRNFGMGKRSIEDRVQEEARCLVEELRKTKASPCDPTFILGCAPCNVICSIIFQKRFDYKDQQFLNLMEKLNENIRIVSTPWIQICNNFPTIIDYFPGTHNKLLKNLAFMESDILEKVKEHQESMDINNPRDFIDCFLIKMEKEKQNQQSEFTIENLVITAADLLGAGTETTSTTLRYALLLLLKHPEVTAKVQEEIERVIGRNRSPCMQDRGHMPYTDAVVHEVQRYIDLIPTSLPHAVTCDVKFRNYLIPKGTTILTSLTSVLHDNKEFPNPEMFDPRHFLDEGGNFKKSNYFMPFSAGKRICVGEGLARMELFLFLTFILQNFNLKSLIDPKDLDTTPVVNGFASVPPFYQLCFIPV
Chain of Cytochrome P450 2D6 (P10635 whole entry): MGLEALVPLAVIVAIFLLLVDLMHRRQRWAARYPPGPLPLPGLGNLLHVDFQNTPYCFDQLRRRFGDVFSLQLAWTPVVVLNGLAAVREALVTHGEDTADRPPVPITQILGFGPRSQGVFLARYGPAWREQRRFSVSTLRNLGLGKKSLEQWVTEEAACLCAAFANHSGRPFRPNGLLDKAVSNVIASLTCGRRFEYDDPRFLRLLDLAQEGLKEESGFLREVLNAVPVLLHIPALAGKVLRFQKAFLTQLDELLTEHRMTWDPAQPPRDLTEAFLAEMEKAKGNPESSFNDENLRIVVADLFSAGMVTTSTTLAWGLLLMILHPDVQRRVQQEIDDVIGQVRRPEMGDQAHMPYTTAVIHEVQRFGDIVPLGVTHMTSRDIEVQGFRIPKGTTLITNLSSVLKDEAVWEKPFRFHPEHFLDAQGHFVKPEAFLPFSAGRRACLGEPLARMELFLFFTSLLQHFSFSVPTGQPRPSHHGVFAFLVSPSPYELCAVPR
Chain of Cytochrome P450 2C9 (P11712 whole entry): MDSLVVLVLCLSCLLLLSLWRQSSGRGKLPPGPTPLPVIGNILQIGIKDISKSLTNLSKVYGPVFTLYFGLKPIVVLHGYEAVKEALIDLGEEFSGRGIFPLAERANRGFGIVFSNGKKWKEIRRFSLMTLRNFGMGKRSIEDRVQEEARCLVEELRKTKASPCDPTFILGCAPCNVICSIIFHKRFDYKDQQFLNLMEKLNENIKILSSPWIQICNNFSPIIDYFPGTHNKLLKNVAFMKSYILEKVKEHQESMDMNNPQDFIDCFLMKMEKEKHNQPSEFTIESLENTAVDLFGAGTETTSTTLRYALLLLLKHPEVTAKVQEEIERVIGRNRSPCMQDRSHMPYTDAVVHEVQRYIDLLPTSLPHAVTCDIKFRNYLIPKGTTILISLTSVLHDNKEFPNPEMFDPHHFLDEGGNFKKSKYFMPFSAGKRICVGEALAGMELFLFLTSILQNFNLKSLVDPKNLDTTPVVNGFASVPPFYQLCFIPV
Chain of CYP3A4 (P08684 whole entry): as the sequence (P08684 whole entry) above
Chain of CYP2D6 (P10635 whole entry): as the sequence (P10635 whole entry) above

Row | SMILES | pIC50 [1] | pIC50 [2] | chromatographic logD [3] | IC50 (Cytochrome P450 2C19) [µM] | IC50 (Cytochrome P450 2C9) [µM] | IC50 [4] [µM] | IC50 shift (CYP2D6) | CLint scaled [5] [mL/min/kg] | IC50 (Cytochrome P450 3A4 [6]) [µM] | IC50 (Cytochrome P450 1A2) [µM] | CLint scaled [7] [mL/min/kg] | CLint scaled [8] [mL/min/kg] | IC50 shift (CYP3A4) | IC50 (Cytochrome P450 3A4 [9]) [µM] | IC50 (Cytochrome P450 2D6) [µM] | pKa [10] | inhibition [11] [%]
1 | Cc1cccc(C)c1CNc1cccn2c(C)nnc12 | 4 | inactive | 3.5 |  |  |  |  |  |  |  |  |  |  |  |  |  | 
2 | Cc1c(C)n(C[C@H]2C[C@@H]2C)c2c(OCc3ccc(F)cc3)nncc12 | 6.8 |  |  | 5.1 | 0.8 | 0.282 | 0.6 | 30 | 14 | 1.2 | 16 | 38 | 1.2 | 6 | 4.4 |  | 
3 | Cc1cccc(C)c1CNc1nccc2c1cc(C)n2C | 6.8 |  | 2.04 | 6.9 | 66 |  |  | 28 | 4.3 | 41 | 3.8 | 17 |  | 3.1 | < 0.1 | 9.14 | 22
4 | Cc1cccc(C)c1CNc1ccnc2c1cc(C)n2C | 4.8 |  | 3.28 |  |  |  |  |  |  |  |  |  |  |  |  | 7.42 | 36
